Counter-ions that a name gives are not always drawn. Like-named read-outs stand apart in the source and are kept apart here.
System: recombinant NL-Rluc virus (NL4-3 with Renilla Luciferase gene) in MT-2 cells
Assay: Inhibition of HIV replication (NL-Rluc luciferase reporter virus, MT-2 cells)
Format: cell-based, human immunodeficiency virus (HIV)
Conditions: NL43, 120 h

Row | SMILES | EC50 (read-out: Activity) [µM] | EC50 (read-out: EC50 μM) [µM]
1 | Cc1nc2cc(-c3cccc(-c4cccnc4)c3)nn2c(-c2cc(F)c3c(c2C)CCCO3)c1[C@H](OC(C)(C)C)C(=O)O [Example 119, (2S)-2-(tert-Butoxy)-2-(7-(8-fluoro-5-methylchroman-6-yl)-5-methyl-2-(3-(pyridin-3-yl)phenyl)pyrazolo[1,5-a]pyrimidin-6-yl)acetic acid] | < 0.1 | –
2 | Cc1nc2cc(-c3cccc(-c4ccc5c(cnn5C)c4)c3)nn2c(-c2cc(F)c3c(c2C)CCCO3)c1[C@H](OC(C)(C)C)C(=O)O [Example 120, (2S)-2-(tert-Butoxy)-2-(7-(8-fluoro-5-methylchroman-6-yl)-5-methyl-2-(3-(1-methyl-1H-indazol-5-yl)phenyl)pyrazolo[1,5-a]pyrimidin-6-yl)acetic acid] | < 0.1 | 0.002
3 | Cc1nc2cc(-c3cccc(-c4ccncc4)c3)nn2c(-c2cc(F)c3c(c2C)CCCO3)c1[C@H](OC(C)(C)C)C(=O)O [Example 121, (2S)-2-(tert-Butoxy)-2-(7-(8-fluoro-5-methylchroman-6-yl)-5-methyl-2-(3-(pyridin-4-yl)phenyl)pyrazolo[1,5-a]pyrimidin-6-yl)acetic acid, TFA salt] | < 0.1 | –
4 | Cc1nc2cc(-c3cccc(-c4ccncc4)c3)nn2c(-c2cc(F)c3c(c2C)CCCO3)c1[C@@H](OC(C)(C)C)C(=O)O [Example 122, (2R)-2-(tert-Butoxy)-2-(7-(8-fluoro-5-methylchroman-6-yl)-5-methyl-2-(3-(pyridin-4-yl)phenyl)pyrazolo[1,5-a]pyrimidin-6-yl)acetic acid, TFA salt] | > 1 | –
5 | Cc1nc2cc(-c3cccc(Cl)c3)nn2c(-c2cc(F)c3c(c2C)CCCO3)c1[C@H](OC(C)(C)C)C(=O)O [Example 123, (2S)-2-(tert-Butoxy)-2-(2-(3-chlorophenyl)-7-(8-fluoro-5-methylchroman-6-yl)-5-methylpyrazolo[1,5-a]pyrimidin-6-yl)acetic acid, TFA salt] | < 0.1 | –
6 | Cc1nc2cc(-c3cccc(-c4ccc(F)cc4)c3)nn2c(-c2cc(F)c3c(c2C)CCCO3)c1[C@H](OC(C)(C)C)C(=O)O [Example 124, (2S)-2-(tert-Butoxy)-2-(7-(8-fluoro-5-methylchroman-6-yl)-2-(4′-fluoro-[1,1′-biphenyl]-3-yl)-5-methylpyrazolo[1,5-a]pyrimidin-6-yl)acetic acid, TFA salt] | < 0.1 | –
7 | Cc1nc2cc(-c3cccc(-c4ccccc4)c3)nn2c(-c2cc(F)c3c(c2C)CCCO3)c1[C@H](OC(C)(C)C)C(=O)O [Example 125, (2S)-2-(2-([1,1′-Biphenyl]-3-yl)-7-(8-fluoro-5-methylchroman-6-yl)-5-methylpyrazolo[1,5-a]pyrimidin-6-yl)-2-(tert-butoxy)acetic acid] | < 0.1 | –
8 | Cc1ccc(-c2cccc(-c3cc4nc(C)c([C@H](OC(C)(C)C)C(=O)O)c(-c5cc(F)c6c(c5C)CCCO6)n4n3)c2)cc1 [Example 126, (2S)-2-(tert-Butoxy)-2-(7-(8-fluoro-5-methylchroman-6-yl)-2-(4′-methyl-[1,1′-biphenyl]-3-yl)-5-methylpyrazolo[1,5-a]pyrimidin-6-yl)acetic acid, TFA salt] | < 0.1 | –
9 | COc1ccc(-c2cccc(-c3cc4nc(C)c([C@H](OC(C)(C)C)C(=O)O)c(-c5cc(F)c6c(c5C)CCCO6)n4n3)c2)cc1 [Example 127, (2S)-2-(tert-Butoxy)-2-(7-(8-fluoro-5-methylchroman-6-yl)-2-(4′-methoxy-[1,1′-biphenyl]-3-yl)-5-methylpyrazolo[1,5-a]pyrimidin-6-yl)acetic acid, TFA salt] | < 0.1 | –
10 | Cc1nc2cc(-c3cccc(-c4cccc(F)c4)c3)nn2c(-c2cc(F)c3c(c2C)CCCO3)c1[C@H](OC(C)(C)C)C(=O)O [Example 128, (2S)-2-(tert-Butoxy)-2-(7-(8-fluoro-5-methylchroman-6-yl)-2-(3′-fluoro-[1,1′-biphenyl]-3-yl)-5-methylpyrazolo[1,5-a]pyrimidin-6-yl)acetic acid, TFA salt] | < 0.1 | –
11 | COc1cccc(-c2cccc(-c3cc4nc(C)c([C@H](OC(C)(C)C)C(=O)O)c(-c5cc(F)c6c(c5C)CCCO6)n4n3)c2)c1 [Example 129, (2S)-2-(tert-Butoxy)-2-(7-(8-fluoro-5-methylchroman-6-yl)-2-(3′-methoxy-[1,1′-biphenyl]-3-yl)-5-methylpyrazolo[1,5-a]pyrimidin-6-yl)acetic acid, TFA salt] | < 0.1 | –
12 | Cc1cccc(-c2cccc(-c3cc4nc(C)c([C@H](OC(C)(C)C)C(=O)O)c(-c5cc(F)c6c(c5C)CCCO6)n4n3)c2)c1 [Example 130, (2S)-2-(tert-Butoxy)-2-(7-(8-fluoro-5-methylchroman-6-yl)-2-(3′-methyl-[1,1′-biphenyl]-3-yl)-5-methylpyrazolo[1,5-a]pyrimidin-6-yl)acetic acid, TFA salt] | < 0.1 | –
13 | Cc1nc2cc(-c3cccc(-c4cnn(C)c4)c3)nn2c(-c2cc(F)c3c(c2C)CCCO3)c1[C@H](OC(C)(C)C)C(=O)O [Example 131, (2S)-2-(tert-Butoxy)-2-(7-(8-fluoro-5-methylchroman-6-yl)-5-methyl-2-(3-(1-methyl-1H-pyrazol-4-yl)phenyl)pyrazolo[1,5-a]pyrimidin-6-yl)acetic acid] | < 0.1 | –
14 | Cc1nc2c(-c3cccc(Cl)c3)cnn2c(-c2cc(F)c3c(c2C)CCCO3)c1C(OC(C)(C)C)C(=O)O (stereo not shown) [Example 132] | 0.1 to 1 | –
15 | Cc1nc2c(-c3cccc(Cl)c3)cnn2c(-c2ccc3c(c2)CCCO3)c1C(OC(C)(C)C)C(=O)O (stereo not shown) [Example 133, 2-tert-Butoxy-2-(3-(3-chlorophenyl)-(7-chroman-6-yl)-5-methylpyrazolo[1,5-a]pyrimidin-6-yl)acetic acid] | 0.1 to 1 | –
16 | Cc1ccc(-c2c(C(OC(C)(C)C)C(=O)O)c(C)nc3c(-c4cccc(Cl)c4)cnn23)c(Cl)c1 (stereo not shown) [Example 134, 2-tert-Butoxy-2-(7-(2-chloro-4-methylphenyl)-3-(3-chlorophenyl)-5-methylpyrazolo[1,5-a]pyrimidin-6-yl)acetic acid] | > 1 | –
17 | Cc1nc2c(-c3cccc(-c4ccncc4)c3)cnn2c(-c2cc(F)c3c(c2C)CCCO3)c1C(OC(C)(C)C)C(=O)O (stereo not shown) [Example 135, 2-(tert-Butoxy)-2-(7-(8-fluoro-5-methylchroman-6-yl)-5-methyl-3-(3-(pyridin-4-yl)phenyl)pyrazolo[1,5-a]pyrimidin-6-yl)acetic acid] | 0.1 to 1 | –
18 | Cc1nc2c(-c3ccc(F)cc3)c(-c3ccccc3)nn2c(-c2cc(F)c3c(c2C)CCCO3)c1C(OC(C)(C)C)C(=O)O (stereo not shown) [Example 136, 2-(tert-Butoxy)-2-(7-(8-fluoro-5-methylchroman-6-yl)-3-(4-fluorophenyl)-5-methyl-2-phenylpyrazolo[1,5-a]pyrimidin-6-yl)acetic acid] | > 1 | 1.6
19 | Cc1nc2c(-c3cc(F)c4c(c3C)CCCO4)c(-c3ccccc3)nn2c(-c2cc(F)c3c(c2C)CCCO3)c1C(OC(C)(C)C)C(=O)O (stereo not shown) [Example 137, 2-(3,7-Bis(8-fluoro-5-methylchroman-6-yl)-5-methyl-2-phenylpyrazolo[1,5-a]pyrimidin-6-yl)-2-(tert-butoxy)acetic acid] | > 1 | –
20 | Cc1nc2c(Br)c(-c3ccccc3)nn2c(-c2cc(F)c3c(c2C)CCCO3)c1[C@H](OC(C)(C)C)C(=O)O [Example 138, (2S)-2-(3-Bromo-7-(8-fluoro-5-methylchroman-6-yl)-5-methyl-2-phenylpyrazolo[1,5-a]pyrimidin-6-yl)-2-(tert-butoxy)acetic acid] | 0.1 to 1 | –

— patent US8633200B2, “Inhibitors of human immunodeficiency virus replication” (priority 2010, dated 2014)
